Reference: patent US20260265233A1, “BENZOTHIOPHENE DERIVATIVES AS RXFP1 AGONISTS” (BRISTOL-MYERS SQUIBB COMPANY, priority 2021, published 2026)
pEC50: −log10 of the molar value.

Target: T1, human RXFP1 (Homo sapiens, UniProt Q9HBX9)
T1 construct: expressed in transfected cells
T1 sequence (Q9HBX9 1-757): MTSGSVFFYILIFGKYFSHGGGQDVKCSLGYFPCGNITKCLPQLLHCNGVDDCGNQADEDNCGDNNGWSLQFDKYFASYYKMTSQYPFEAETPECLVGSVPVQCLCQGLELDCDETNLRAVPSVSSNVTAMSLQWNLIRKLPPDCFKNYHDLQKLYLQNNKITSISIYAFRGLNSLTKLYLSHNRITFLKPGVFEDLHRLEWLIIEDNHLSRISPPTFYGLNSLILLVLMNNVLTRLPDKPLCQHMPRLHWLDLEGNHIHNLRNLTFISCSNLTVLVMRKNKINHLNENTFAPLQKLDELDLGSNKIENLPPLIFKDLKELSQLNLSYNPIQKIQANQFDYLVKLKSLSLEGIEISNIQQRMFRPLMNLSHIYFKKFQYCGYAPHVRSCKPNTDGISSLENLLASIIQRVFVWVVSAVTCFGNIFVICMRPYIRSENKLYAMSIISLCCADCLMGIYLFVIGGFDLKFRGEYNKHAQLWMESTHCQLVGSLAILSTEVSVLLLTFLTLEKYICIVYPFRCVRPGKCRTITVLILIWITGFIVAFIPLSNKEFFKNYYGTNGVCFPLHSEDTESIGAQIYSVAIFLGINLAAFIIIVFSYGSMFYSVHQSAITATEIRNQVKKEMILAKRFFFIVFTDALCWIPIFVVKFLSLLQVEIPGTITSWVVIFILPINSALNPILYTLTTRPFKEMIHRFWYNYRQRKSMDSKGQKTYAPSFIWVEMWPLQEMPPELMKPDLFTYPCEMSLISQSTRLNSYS
Experiment: hRXFP1 HEK293 cAMP assay (HTRF)
Type: cell-based
Conditions: HEK293 cells stably expressing human RXFP1; 30 min at rt; intracellular cAMP by HTRF
Procedure, shortened: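 Agonism is measured as cAMP by HTRF, quantified from a standard curve via the 665/590 nm ratio and fitted with a four-parameter logistic equation. Compounds (0.010 nM to 50 μM final, 2% DMSO) were applied for 30 min at rt to human RXFP1-expressing HEK293 cells in assay buffer containing 0.5 mM IBMX.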

Row | Structure (SMILES) | pEC50
1 | COc1ccc(CNC(c2ccc(F)c(-c3ccc(OC)c(C(=O)Nc4c(C(=O)Nc5ccc(F)c(C(F)(F)F)c5)sc5cc(C(F)(F)F)ccc45)c3)c2)C(F)(F)F)cc1OC (single isomer, unassigned) [Example 114, 3-(5′-(1-((3,4-dimethoxybenzyl)amino)-2,2,2-trifluoroethyl)-2′-fluoro-4-methoxy-[1,1′-biphenyl]-3-carboxamido)-N-(4-fluoro-3-(trifluoromethyl)phenyl)-6-(trifluoromethyl) benzo[b] thiophene-2-carboxamide] | 7.65
2 | COc1ccc(CNC(c2ccc(F)c(-c3ccc(OC)c(C(=O)Nc4c(C(=O)Nc5ccc(F)c(C(F)(F)F)c5)sc5cc(C(F)(F)F)ccc45)c3)c2)C(F)(F)F)cc1OC (single isomer, unassigned) [Example 115, 3-(5′-(1-((3,4-dimethoxybenzyl)amino)-2,2,2-trifluoroethyl)-2′-fluoro-4-methoxy-[1,1′-biphenyl]-3-carboxamido)-N-(4-fluoro-3-(trifluoromethyl)phenyl)-6-(trifluoromethyl) benzo[b] thiophene-2-carboxamide] | 7.01
3 | COc1ccc(C2CCNC2)cc1C(=O)Nc1c(C(=O)Nc2ccc(F)c(C(F)(F)F)c2)sc2cc(C(F)(F)F)ccc12 (single isomer, unassigned) [Example 133, N-(4-fluoro-3-(trifluoromethyl)phenyl)-3-(2-methoxy-5-(pyrrolidin-3-yl)benzamido)-6-(trifluoromethyl) benzo[b] thiophene-2-carboxamide] | 6.06
4 | COc1ccc(C2CCN(C(=O)C(C)(C)CO)C2)cc1C(=O)Nc1c(C(=O)Nc2ccc(F)c(C(F)(F)F)c2)sc2cc(C(F)(F)F)ccc12 (single isomer, unassigned) [Example 139, N-(4-fluoro-3-(trifluoromethyl)phenyl)-3-(5-(1-(3-hydroxy-2,2-dimethyl-propanoyl)pyrrolidin-3-yl)-2-methoxy-benzamido)-6-(trifluoromethyl) benzo[b] thiophene-2-carboxamide] | 7.14
5 | COc1ccc(C2CCN(CCS(C)(=O)=O)C2)cc1C(=O)Nc1c(C(=O)Nc2ccc(F)c(C(F)(F)F)c2)sc2cc(C(F)(F)F)ccc12 (single isomer, unassigned) [Example 149, N-(4-fluoro-3-(trifluoromethyl)phenyl)-3-(2-methoxy-5-(1-(2-(methylsulfonyl)ethyl)pyrrolidin-3-yl)benzamido)-6-(trifluoromethyl) benzo[b] thiophene-2-carboxamide] | 5.92
6 | COc1ccc(C2CCN(C(=O)C(C)(C)CO)C2)cc1C(=O)Nc1c(C(=O)Nc2ccc(F)c(C(F)(F)F)c2)sc2cc(C(F)(F)F)ccc12 (single isomer, unassigned) [Example 150, N-(4-fluoro-3-(trifluoromethyl)phenyl)-3-(5-(1-(3-hydroxy-2,2-dimethyl-propanoyl)pyrrolidin-3-yl)-2-methoxy-benzamido)-6-(trifluoromethyl) benzo[b] thiophene-2-carboxamide] | 6.64
7 | COc1ccc(C2CCN(CCS(C)(=O)=O)C2)cc1C(=O)Nc1c(C(=O)Nc2ccc(F)c(C(F)(F)F)c2)sc2cc(C(F)(F)F)ccc12 (single isomer, unassigned) [Example 153, N-(4-fluoro-3-(trifluoromethyl)phenyl)-3-(2-methoxy-5-(1-(2-(methylsulfonyl)ethyl)pyrrolidin-3-yl)benzamido)-6-(trifluoromethyl) benzo[b] thiophene-2-carboxamide] | 6.50
8 | COc1ccc(C2CC2C(=O)NC2CCOCC2)cc1C(=O)Nc1c(C(=O)Nc2ccc(F)c(C(F)(F)F)c2)sc2cc(C(F)(F)F)ccc12 (single isomer, unassigned) [Example 157, N-[4-fluoro-3-(trifluoromethyl)phenyl]-3-(2-methoxy-5-{2-[(oxan-4-yl)carbamoyl]cyclopropyl}benzamido)-6-(trifluoromethyl)-1-benzothiophene-2-carboxamide] | 5.98
9 | COc1ccc(C2CC2C(=O)NC2CCOCC2)cc1C(=O)Nc1c(C(=O)Nc2ccc(F)c(C(F)(F)F)c2)sc2cc(C(F)(F)F)ccc12 (single isomer, unassigned) [Example 158, N-[4-fluoro-3-(trifluoromethyl)phenyl]-3-(2-methoxy-5-{2-[(oxan-4-yl)carbamoyl]cyclopropyl}benzamido)-6-(trifluoromethyl)-1-benzothiophene-2-carboxamide] | 7.53
10 | COc1ccc(C2CC2C(C)(C)O)cc1C(=O)Nc1c(C(=O)Nc2ccc(F)c(C(F)(F)F)c2)sc2cc(C(F)(F)F)ccc12 (single isomer, unassigned) [Example 160, N-[4-fluoro-3-(trifluoromethyl)phenyl]-3-{5-[2-(2-hydroxypropan-2-yl)cyclopropyl]-2-methoxy-benzamido}-6-(trifluoromethyl)-1-benzothiophene-2-carboxamide] | 5.64
11 | COc1ccc(C2CC2C(C)(C)O)cc1C(=O)Nc1c(C(=O)Nc2ccc(F)c(C(F)(F)F)c2)sc2cc(C(F)(F)F)ccc12 (single isomer, unassigned) [Example 161, N-[4-fluoro-3-(trifluoromethyl)phenyl]-3-{5-[2-(2-hydroxypropan-2-yl)cyclopropyl]-2-methoxy-benzamido}-6-(trifluoromethyl)-1-benzothiophene-2-carboxamide] | 5.31
12 | COc1ccc(C2CC2C(=O)N2CC(S(C)(=O)=O)C2)cc1C(=O)Nc1c(C(=O)Nc2ccc(F)c(C(F)(F)F)c2)sc2cc(C(F)(F)F)ccc12 (single isomer, unassigned) [Example 164, N-[4-fluoro-3-(trifluoromethyl)phenyl]-3-{5-[2-(3-methane-sulfonylazetidine-1-carbonyl)cyclopropyl]-2-methoxy-benzamido}-6-(trifluoromethyl)-1-benzothiophene-2-carboxamide] | 6.06
13 | COc1ccc(C2CC2C(=O)N2CC(S(C)(=O)=O)C2)cc1C(=O)Nc1c(C(=O)Nc2ccc(F)c(C(F)(F)F)c2)sc2cc(C(F)(F)F)ccc12 (single isomer, unassigned) [Example 168, N-[4-fluoro-3-(trifluoromethyl)phenyl]-3-{5-[2-(3-methane-sulfonylazetidine-1-carbonyl)cyclopropyl]-2-methoxy-benzamido}-6-(trifluoromethyl)-1-benzothiophene-2-carboxamide] | 6.75
14 | COc1ccc(N2CCCC(C(=O)NC3COC3)C2)cc1C(=O)Nc1c(C(=O)Nc2ccc(F)c(C(F)(F)F)c2)sc2cc(C(F)(F)F)ccc12 (single isomer, unassigned) [Example 188, 1-(3-((2-((4-fluoro-3-(trifluoromethyl)phenyl)carbamoyl)-6-(trifluoromethyl)benzo[b]thiophen-3-yl)carbamoyl)-4-methoxyphenyl)-N-(oxetan-3-yl)piperidine-3-carboxamide] | 6.11
15 | COc1ccc(C2CCC(NCC(=O)O)CC2)cc1C(=O)Nc1c(C(=O)Nc2ccc(F)c(C(F)(F)F)c2)sc2cc(C(F)(F)F)ccc12 (single isomer, unassigned) [Example 211, (4-(3-((2-((4-fluoro-3-(trifluoromethyl)phenyl)carbamoyl)-6-(trifluoromethyl)benzo[b]thiophen-3-yl)carbamoyl)-4-methoxyphenyl)cyclohexyl) glycine] | 5.56
16 | COc1ccc(N2CCOC(CC(C)(C)O)C2)cc1C(=O)Nc1c(C(=O)Nc2ccc(F)c(C(F)(F)F)c2)sc2cc(C(F)(F)F)ccc12 (single isomer, unassigned) [Example 227, N-(4-fluoro-3-(trifluoromethyl)phenyl)-3-(5-(2-(2-hydroxy-2-methylpropyl)morpholino)-2-methoxy-benzamido)-6-(trifluoromethyl) benzo[b] thiophene-2-carboxamide] | 5.89
17 | COc1ccc(N2CCOC(CC(C)(C)O)C2)cc1C(=O)Nc1c(C(=O)Nc2ccc(F)c(C(F)(F)F)c2)sc2cc(C(F)(F)F)ccc12 (single isomer, unassigned) [Example 228, N-(4-fluoro-3-(trifluoromethyl)phenyl)-3-(5-(2-(2-hydroxy-2-methylpropyl)morpholino)-2-methoxy-benzamido)-6-(trifluoromethyl) benzo[b] thiophene-2-carboxamide] | 5.81
18 | COc1ccc(N2CCCC(C(=O)NC3COC3)C2)cc1C(=O)Nc1c(C(=O)Nc2ccc(F)c(C(F)(F)F)c2)sc2cc(C(F)(F)F)ccc12 (single isomer, unassigned) [Example 229, 1-(3-((2-((4-fluoro-3-(trifluoromethyl)phenyl)carbamoyl)-6-(trifluoromethyl)benzo [b]thiophen-3-yl)carbamoyl)-4-methoxyphenyl)-N-(oxetan-3-yl)piperidine-3-carboxamide] | 5.59
